Data: article PMC10254306, “Piplartine-Inspired 3,4,5-Trimethoxycinnamates: Trypanocidal, Mechanism of Action, and In Silico Evaluation” (Molecules, 2023)
pIC50: −log10 of the molar value. “And” between values parts separate entries of the source, which are not always exact repeats. Equal entries are not always repeated.

Key:
[1] = tested on: epimastigote forms of T. cruzi, Y strain; assay: Trypanocidal activity on epimastigote forms (growth inhibition, Neubauer chamber count); format: cell-based, Trypanosoma cruzi
Description: (§1) Initially, the prepared esters were submitted to in vitro tests using the microdilution technique in 96-well plates to evaluate the trypanocidal activity against the epimastigote evolutionary form at different concentrations (200–3.12 μg/mL). Then, the compounds with the best activity were tested against the trypomastigote form of T. cruzi. In both assays, IC50 values were calculated; a compound is considered to have trypanocidal activity when IC50 <40 μM [21]. The results are expressed in Table 1.
Initially, epimastigotes were cultured and distributed in 96-well plates at a density of 10^6 cells/mL in liver infusion tryptose medium supplemented with 10% fetal bovine serum (FBS) and 1% antibiotic. Then, the cells were treated with piplartine analogues at different concentrations and incubated at 28 °C for 24 h. To quantify the growth inhibition of the parasites, a Neubauer chamber was used, and the IC50 was defined.

[2] = tested on: trypomastigote forms of T. cruzi, Y strain; assay: Trypanocidal activity on trypomastigote forms (viability by counting); format: cell-based, Trypanosoma cruzi
Description: as §1
Trypomastigote forms were obtained by infecting LLC-MK2 cells with the parasite; in this way, the cells were incubated for 24 h in T-25/75 cm^2 flasks at 37 °C in an atmosphere with 5% CO2 in DMEM medium supplemented with 2% FBS and 1% antibiotic. Subsequently, the trypomastigote forms were distributed in 96-well plates treated with piplartine analogues at different concentrations (200; 100; 50; 25; 12.5; 6.25; 3.12 μg/mL) and incubated at 37 °C for 24 h. The assessment of cell viability was performed by counting, and the IC50 was defined.

[3] = In vitro cytotoxicity, MTT assay; format: cell-based, Rhesus monkey; details: Rhesus monkey, LLC-MK2 renal epithelial cells; MTT, 24 h; read-out: LLCK-MK2 CC50
Description: (§2) The compounds were considered selective for the parasite when SI ≥ 10 [21]. The results are expressed in Table 2.
(§3) For the cytotoxicity analysis, the (3-[4,5-dimethylthiazol-2-yl]-2,5 diphenyl tetrazolium bromide) (MTT) assay was used, in which the LLC-MK2 cells were cultured in Dulbecco’s Modified Eagle Medium (DMEM), then exposed to the piplartine analogues at different concentrations (25–200 μg/mL) and incubated for 24 h at 37 °C. Then MTT was added, and the cells were incubated for 4 h, after which 10% sodium dodecyl sulfate was added. […] To calculate the relative cell viability, cells treated only with sterile phosphate-buffered saline were used as a negative control. The experiments were conducted in triplicates.

LLC-MK2 cells = assay: In vitro cytotoxicity, MTT assay; format: cell-based, Rhesus monkey
Description: as §2, §3

[4] = tested on: epimastigote cells of T. cruzi; assay: Cytoplasmic reactive oxygen species, DCFH-DA flow cytometry; format: cell-based, Trypanosoma cruzi; details: 157 and 314 µM, 24 h
Description: To elucidate the mechanism of action of 11, the increase in the concentration of ROS inside epimastigote cells of T. cruzi was evaluated through fluorescent techniques using 2′,7′–dichlorofluorescein diacetate (DCFH-DA). The results are illustrated in Figure 2 and Figure 3.
The DCFH-DA assay was used to evaluate the increase in ROS concentration in the cytoplasm of epimastigote cells treated with 11. Initially, 10^6 epimastigote cells/mL were added to 24-well plates in the presence of 11 (157 μM and 314 µM). After 3 h, 10 µL of a solution of DCFH-DA (20 µM in DMSO) was added. After 24 h, the cells were centrifuged (2800 RPM for 7 min), washed, and resuspended in 500 µL of phosphate buffered saline for flow cytometer analysis. Thus, the level of labeling in each group was analyzed by the geometric mean of the fluorescence intensity, and the results were expressed as relative fluorescence intensity according to the following formula (Equation (1)): (1) Relative fluorescence=mTest/mControl mTEST = geometric mean of the interest group; mCONTROL = geometric mean of the control group.

T. cruzi epimastigotes = assay: Mitochondrial transmembrane potential, rhodamine 123 flow cytometry; format: cell-based, Trypanosoma cruzi; details: 157 and 314 µM, 24 h
Description: In addition, the mitochondrial damage exerted by 11 on the parasite was evaluated through the mitochondrial transmembrane potential assay using the fluorescent dye rhodamine 123 (Rho 123).
Initially, 11 (157 and 314 µM) and epimastigote forms (10^6 cells/mL) were added in 24-well plates. After 24 h, the cells were centrifuged and washed with phosphate-buffered saline. Subsequently, the cells were resuspended in 100 µL of phosphate-buffered saline, and 5 µL of Rho123 solution (10 µg/mL) was added. Thus, the samples were incubated in the dark for 30 min, washed, and resuspended with phosphate-buffered saline (500 µL/tube) for analysis by flow cytometry. Results were evaluated by relative fluorescence intensity, calculated as described above.

[5] = tested on: epimastigote forms of T. cruzi; assay: Cell death profile, 7-AAD / annexin V-PE labeling; format: cell-based, Trypanosoma cruzi; details: 157 and 314 µM, 24 h
Description: Epimastigote forms were used to analyze the cell death profile through labeling with AxPE and 7-AAD. Initially, the cells were divided into four cell populations: viable cells—with a low level of labeling (7AAD−/AxPE−); necrotic cells—labeled with 7-AAD (7AAD+/AxPE−); apoptotic cells—labeled with annexin V-PE (7AAD−/AxPE+); and cells in late apoptosis—doubly labeled (7AAD+/AxPE+).
The cells were treated with 11 for 24 h at concentrations of 157 and 314 µM.
The epimastigote forms of T. cruzi were cultivated at a density of 10^6 cells/mL in the presence of 11 (157 and 314 µM) for 24 h in a stove. Then, the cells were transferred to cytometry tubes, centrifuged at 4000 RPM for 5 min and washed twice with phosphate-buffered saline and binding buffer (pH 7.4; a compound of HEPES solution 10 mM; NaCl 140 mM; and CaCl2 2.5 mm). After the last centrifugation, the pellet was resuspended in 100 µL binding buffer, 5 µL 7-AAD (0.5 mg/mL), and 5 µL Ax/PE. The procedure was performed using a commercial kit (Annexin V PE Apoptosis Detection Kit I, BD Biosciences) and following the manufacturer’s guidelines. After 15 min of incubation in the dark, 400 µL of binding buffer was added to each tube, and the cells were analyzed on the FACSCalibur (BD Biosciences). For each tube, a minimum of 10^4 cells were analyzed to quantify the percentage of unlabeled cells and were either singly or double labeled with 7-AAD and Ax/PE. For this, an argon laser (488 nm) was used to excite the fluorochromes. Ax/PE-labeled cells were read by the FL2 detector (563 to 606 nm, yellow fluorescence), while 7-AAD-labeled cells were read at 615 to 645 nm wavelength (red fluorescence, FL3 detector).

[6] = tested on: epimastigote forms of T. cruzi; assay: Scanning electron microscopy of morphological changes; format: cell-based, Trypanosoma cruzi; details: 24 h of treatment, 157 µM
Description: In addition, scanning electron microscopy was used to analyze possible morphological alterations of epimastigote forms treated with compound 11. […] Similar results were obtained by treating epimastigote forms with pentyl p-coumarate.
To evaluate the changes induced by 11 in the ultrastructure of T. cruzi, the epimastigote forms were incubated with them for 24 h. After this period, the samples were centrifuged (5000 rpm; 10 min), the supernatant discarded, and the pellet resuspended in glutaraldehyde solution (2.5%) and incubated for 2 h. The fixed samples were again centrifuged and exposed to increasing concentrations of ethanol (30, 50, 70, 90, and 100%) for dehydration, followed by centrifugation (5000 rpm; 5 min). Finally, the cells were transferred to the surface of circular coverslips (15 mm) and dried in a CO2 oven. The coverslips were covered with a gold layer (20 nm thick) using the QT150 ES-Quorum Metallizer and analyzed in a Quanta 450 FEG-FEI scanning electron microscope to observe changes in the three-dimensional structure of the epimastigote forms of T. cruzi.

[7] = tested on: epimastigote form of T. cruzi; parameters: method as in PMID 31775321; details: cited from earlier work
[8] = tested on: trypomastigote forms of T. cruzi; parameters: method as in PMID 31775321; details: read-out: IC50 trypomastigote form; cited from earlier work
[9] = Trypanosoma cruzi, Y strain, 24 h

Compound | IC50 [1, 9] | Selectivity Index (SI) Epimastigote ([1]; ratio CC50 (LLC-MK2) / IC50 epimastigote) | IC50 [2, 9] | Selectivity Index (SI) Trypomastigote ([2]; ratio CC50 (LLC-MK2) / IC50 trypomastigote) | CC50 at 24 h [3] | toxicity on LLC-MK2 host cells (in words) (LLC-MK2 cells; highest concentration tested (200 μg/mL)) | selectivity for the parasite (SI) (LLC-MK2 cells; parasite form not specified, conclusions) | relative fluorescence DCFH-DA (cytoplasmic ROS) vs control [4] | accumulation of rhodamine 123 (mitochondrial transmembrane potential) vs control (T. cruzi epimastigotes) | apoptotic cells (7AAD−/AxPE+) vs control [5] | cells in late apoptosis (7AAD+/AxPE+) vs control [5] | percentage of necrotic cells (7AAD+/AxPE−) vs control [5] | percentage of viable cells (7AAD−/AxPE−) vs control [5] | ultrastructural alterations by scanning electron microscopy [6] | pIC50 [7] | pIC50 [8]
COc1cc(/C=C/C(=O)OCc2ccco2)cc(OC)c1OC [Compound 11, (E)-furan-2-ylmethyl 3-(3,4,5-trimethoxyphenyl)acrylate] | 8.98 µg/mL and 28.2 µM | >22.2 | 15 µg/mL and 47 µM | >13.4 | > 200 µg/mL and > 628 µM | did not show toxicity at the highest concentration tested | > 10 | increase in relative fluorescence | reduction in the accumulation of rhodamine | increase in apoptotic cells | increase in cells in late apoptosis | increase in the percentage of necrotic cells | reduction in the percentage of viable cells | pore formation and content leakage in the cytoplasm |  | 
CCCCCOC(=O)/C=C/c1ccc(O)cc1 [pentyl p-coumarate] |  |  |  |  |  |  |  |  |  |  |  |  |  |  | 5.29 | 4.21
